Results published in patent US20260199234A1, “PHARMACEUTICAL COMPOSITIONS OF POLYMERIC MICELLAR CINACALCET, AND METHODS OF PREPARATION AND USE THEREOF” (HANGZHOU SHIXI PHARMACEUTICAL TECHNOLOGY CO., LTD., priority 2023, published 2026).

Key:
[1] = oral, fasted subjects; cited from earlier work
[2] = Unbound cinacalcet fraction in plasma (30 kD ultrafiltration, RP-HPLC); format: in vitro ADME, rabbit; details: Recon conc. 1 mg/ml
Procedure: The unbound cinacalcet fractions in plasma were determined. The cinacalcet buffer solution and cinacalcet polymer micelles were mixed with rabbit plasma at 1:4 ratio, incubated at 37° C., and filtered through 30 kD ultrafiltration membrane. The filtrate and unfiltered plasma were mixed with acetonitrile at a ratio of 1:4, and the cinacalcet concentrations were determined by an RP-HPLC. Table 10 presents unbound (filtered) and total (unfiltered) cinacalcet concentrations, and calculated % unbound fractions (unbound concentration divided by total concentration).

For C[C@@H](NCCCc1cccc(C(F)(F)F)c1)c1cccc2ccccc12 [cinacalcet], the Absolute bioavailability [1] is given as 20-25%, the Total conc. ([2]; 1:4 with rabbit plasma, 37° C.) is given as 0.84 ± 0.01 mg/mL and the Unbound concentration ([2]; 5 min) is given as 92 ± 16 µg/mL. The fraction unbound at 5 min, 0.2 mg/mL ([2]; rabbit, rabbit plasma, 5 min) was 0.11.
